# Values quoted from earlier work as cited in patent publication US20010036658A1, “Culture media for growing spirochetes” (priority 1997, published 2001).
# Read-outs that look alike come from different tables or passages of the source.
smiles,measurement,setting,value
COc1cccc2c1C(=O)c1c(O)c3c(c(O)c1C2=O)C[C@@](O)(C(=O)CO)C[C@@H]3O[C@H]1C[C@H](N)[C@H](O)[C@H](C)O1 [doxorubicin],conversion of normal erythrocytes to echinocytes,erythrocytes,prevents
same,anti-bacterial activity,L-forms of bacteria; certain L-forms of bacteria,dramatic anti-bacterial activity
same,anti-bacterial activity,L-forms of bacteria; parent forms of the same bacteria,without any demonstrable effect
